Patent US20200069592A1, “HSP90 INHIBITOR ORAL FORMULATIONS AND RELATED METHODS” (Samus Therapeutics, Inc., priority 2017, published 2020)

What was measured:
[1] = Solubility of the 2HCl salt in dosing vehicle (Example 6); format: physicochemical; details: SyrSpend SF Solution (dosing vehicle), aqueous with cosolvent or surfactant or cyclodextrin; pH ~2.5
From the text: Dose levels of Compound 2 were based on the free base, not the salt. […] Dosage forms of Compound 2 2HCl in ORA-Plus® and in SyrSpend® SF Cherry appeared to be suspension instead of clear solutions. Final physical appearance matched that of the vehicle used. Due to opaque properties of vehicles, full solubility could not be confirmed. However, resultant dosing material appeared homogenous. Dosage forms of Compound 2 2HCl in ORA-Plus® and in SyrSpend® SF Cherry were made fresh immediately prior to use.

[2] = Plasma pharmacokinetics after single oral dose in ORA-Plus or SyrSpend SF (Example 6), LC-MS/MS; format: in vivo, Sprague Dawley rats; details: for AUC % Extrap / Cl_F / Vz_F / AUC(0-inf) / AUC(0-t) / Cmax / Tmax / half-life: rat plasma; for % AUC0-last test vs reference: rats, ratio of group averages; for AUC(0-inf) / AUC(0-t) / Cmax / Tmax / half-life: female, rat, plasma, po
[3] = Particle size distribution (Cilas 1180) of as-received and jet milled API (Example 8); format: physicochemical
Experimental: Compound 2 API ‘as-received’ (Lots #2064-118-8, #2064-146-9, and # BPR-WS 1828-194D(2HCl)—B1-19) were analyzed for PSD on a Cilas 1180 particle size analyzer. Subsequently jet milled API batches B # L0441-20-JM51mmP1, B # L0441-20-JM51mmP2, B # L0441-20-JM51mmP3, and B # L0441-84-JM146mmP1 were also analyzed for PSD Approximately 50 mg Compound 2-2HCl was dispersed into 40 mL 0.2% (w/w) span 80 in n-hexanes (dispersant) and allowed to mix for 60 minutes. API was kept suspended in dispersant via stirring and sonication during test.
A jet milling study was performed on a batch of Compound 2 2HCl with jet mill Fluid Energy Asset #00170 outfitted with a 51 mm collection loop. Batches B # L0441-29-JM51mmP1, B # L0441-29-JM51mmP2, and B # L0441-29-JM51mmP3 were created from ˜10 g of Compound 2 lot # BPR-WS1828-194D(2HCl)-B1-19 subjected to 3 passes. Jet mill settings for grinder nozzle and pusher nozzle as follows: Pass 1 grinder nozzle=60 psi & pusher nozzle=80 psi, Pass 2 and 3 grinder nozzle=50 psi & pusher nozzle=70 psi.
After successfully jet milling on the R&D scale, B # L0441-84-JM146mmP1 was created from Compound 2-2HCl lot # BPR-17-87-B1-21d which was processed with a single pass to confirm GMP scale up conditions in the R&D laboratory by passing 85 g through the GMP jet mill Jet-O-Mizer Asset #01 16 Model 0101 outfitted with 146 mm collection loop using a standard nylon 4×48-inch collection sock inside a PTFE 4×48-inch sock to minimize fines loss. The pressure settings for the grinder and pusher nozzle were: Grinder nozzle 60 psi, Pusher nozzle 70 psi.

[4] = G3: 2HCl, 24 mg/kg single oral dose, ORA-plus
[5] = G4: 2HCl, 48 mg/kg single oral dose, ORA-plus
[6] = G9: 2HCl, 24 mg/kg single oral dose, SyrSpend
[7] = G10: 2HCl, 48 mg/kg single oral dose, SyrSpend, n = 2
[8] = G11: 2HCl, 60 mg/kg single oral dose, SyrSpend, n = 4
[9] = Sprague Dawley, 24 mg/kg, G3: 2HCl, 24 mg/kg single oral dose, ORA-plus
[10] = Sprague Dawley, 24 mg/kg, G9: 2HCl, 24 mg/kg single oral dose, SyrSpend
[11] = Sprague-Dawley, 24 mg/kg, G9: 2HCl, 24 mg/kg single oral dose, SyrSpend
[12] = Sprague-Dawley, 48 mg/kg, G4: 2HCl, 48 mg/kg single oral dose, ORA-plus
[13] = Sprague-Dawley, 48 mg/kg, G10: 2HCl, 48 mg/kg single oral dose, SyrSpend
[14] = Sprague-Dawley, 60 mg/kg, G11: 2HCl, 60 mg/kg single oral dose, SyrSpend
[15] = Lot 2064-118-8, API as received
[16] = Lot 2064-146-9, API as received
[17] = Lot BPR-17-87-B1-21d, API as received
[18] = Lot BPR-17-87-B1-21d, jet milled batch B#L0441-84-JM146mmP1
[19] = Lot BPR-WS1828-194D(2HCL)-B1-19, API as received
[20] = Lot BPR-WS1828-194D(2HCL)-B1-19, jet milled batch B#L0441-20-JM51mmP1
[21] = Lot BPR-WS1828-194D(2HCL)-B1-19, jet milled batch B#L0441-20-JM51mmP2
[22] = Lot BPR-WS1828-194D(2HCL)-B1-19, jet milled batch B#L0441-20-JM51mmP3

Compound: CC(C)(C)CNCCn1c(Sc2cc3c(cc2I)OCO3)nc2c(N)ncnc21 [Compound 2 2HCl]
- solubility [1]: 20 to 25 mg/mL
- AUC % Extrap [2, 4]: 4.00 ± 1.84%
- Cl_F [2, 4]: 357.3 ± 155 mL/min/kg
- Vz_F [2, 4]: 81.00 ± 80.22 L/kg
- AUC % Extrap [2, 5]: 1.32 ± 2.64%
- Cl_F [2, 5]: 154 ± 76.5 mL/min/kg
- Vz_F [2, 5]: 28.42 ± 13.10 L/kg
- AUC % Extrap [2, 6]: 4.72 ± 4.49%
- Cl_F [2, 6]: 405.8 ± 204.3 mL/min/kg
- Vz_F [2, 6]: 129.96 ± 81.45 L/kg
- AUC % Extrap [2, 7]: 2.05 ± 0.35 %
- Cl_F [2, 7]: 124 ± 23 mL/min/kg
- Vz_F [2, 7]: 45.95 ± 8.11 L/kg
- AUC % Extrap [2, 8]: 0.68 ± 0.89 %
- Cl_F [2, 8]: 219.2 ± 72.5 mL/min/kg
- Vz_F [2, 8]: 55.47 ± 25.73 L/kg
- % AUC0-last test vs reference ([2]; Group 3 (24 mg/kg 2HCl ORA-plus) vs Group 9 (24 mg/kg 2HCl SyrSpend)): 109.55%
- % AUC0-last test vs reference ([2]; Group 4 (48 mg/kg 2HCl ORA-plus) vs Group 10 (48 mg/kg 2HCl SyrSpend)): 73.71%
- % AUC0-last test vs reference ([2]; Group 9 (24 mg/kg 2HCl SyrSpend) vs Group 10 (48 mg/kg 2HCl SyrSpend)): 13.71%
- % AUC0-last test vs reference ([2]; Group 9 (24 mg/kg 2HCl SyrSpend) vs Group 11 (60 mg/kg 2HCl SyrSpend)): 24.05%
- % AUC0-last test vs reference ([2]; Group 10 (48 mg/kg 2HCl SyrSpend) vs Group 11 (60 mg/kg 2HCl SyrSpend)): 175.45%
- AUC(0-inf) [2, 9]: 1340 ± 678 ng·h/mL
- AUC(0-t) [2, 9]: 1290 ± 666 ng·h/mL
- Cmax [2, 9]: 407 ± 278 ng/mL
- Tmax [2, 9]: 1.6 ± 0.55 h
- half-life [2, 9]: 2.34 ± 1.76 h
- AUC(0-inf) [2, 10]: 1240 ± 717 ng·h/mL
- AUC(0-t) [2, 10]: 1180 ± 688 ng·h/mL
- AUC(0-t) ([2]; Sprague Dawley, 48 mg/kg, G10: 2HCl, 48 mg/kg single oral dose, SyrSpend): 8580 ± 2220 ng·h/mL
- AUC(0-inf) ([2]; Sprague Dawley, 48 mg/kg, G10: 2HCl, 48 mg/kg single oral dose, SyrSpend, n = 2): 6560 ± 1220 ng·h/mL
- AUC(0-t) ([2]; Sprague Dawley, 60 mg/kg, G11: 2HCl, 60 mg/kg single oral dose, SyrSpend): 4890 ± 1310 ng·h/mL
- AUC(0-inf) ([2]; Sprague Dawley, 60 mg/kg, G11: 2HCl, 60 mg/kg single oral dose, SyrSpend, n = 4): 4950 ± 1780 ng·h/mL
- Cmax [2, 11]: 270 ± 184 ng/mL
- Tmax [2, 11]: 1.2 ± 0.45 h
- half-life [2, 11]: 3.41 ± 1.24 h
- AUC(0-inf) [2, 12]: 6370 ± 3170 ng·h/mL
- AUC(0-t) [2, 12]: 6320 ± 3210 ng·h/mL
- Cmax [2, 12]: 1120 ± 429 ng/mL
- Tmax [2, 12]: 2.2 ± 1.1 h
- half-life [2, 12]: 2.18 ± 0.35 h
- Cmax [2, 13]: 1140 ± 311 ng/mL
- Tmax [2, 13]: 4 ± 1.41 h
- half-life ([2]; Sprague-Dawley, 48 mg/kg, G10: 2HCl, 48 mg/kg single oral dose, SyrSpend, n = 2): 4.28 ± 0.04 h
- Cmax [2, 14]: 825 ± 247 ng/mL
- Tmax [2, 14]: 2.6 ± 1.34 h
- half-life ([2]; Sprague-Dawley, 60 mg/kg, G11: 2HCl, 60 mg/kg single oral dose, SyrSpend, n = 4): 2.84 ± 0.83 h
- Particle size distribution d10 [3, 15]: 12.0 μm
- Particle size distribution d50 [3, 15]: 42.8 μm
- Particle size distribution d90 [3, 15]: 131.6 μm
- Particle size distribution d10 [3, 16]: 8.4 μm
- Particle size distribution d50 [3, 16]: 23.0 μm
- Particle size distribution d90 [3, 16]: 57.7 μm
- Particle size distribution d10 [3, 17]: 11.6 μm
- Particle size distribution d50 [3, 17]: 35.7 μm
- Particle size distribution d90 [3, 17]: 98.3 μm
- Particle size distribution d10 [3, 18]: 1.9 μm
- Particle size distribution d50 [3, 18]: 3.9 μm
- Particle size distribution d90 [3, 18]: 8.0 μm
- Particle size distribution d10 [3, 19]: 11.0 μm
- Particle size distribution d50 [3, 19]: 33.1 μm
- Particle size distribution d90 [3, 19]: 83.0 μm
- Particle size distribution d10 [3, 20]: 3.1 μm
- Particle size distribution d50 [3, 20]: 7.9 μm
- Particle size distribution d90 [3, 20]: 17.3 μm
- Particle size distribution d10 [3, 21]: 2.3 μm
- Particle size distribution d50 [3, 21]: 5.6 μm
- Particle size distribution d90 [3, 21]: 11.7 μm
- Particle size distribution d10 [3, 22]: 2.0 μm
- Particle size distribution d50 [3, 22]: 4.8 μm
- Particle size distribution d90 [3, 22]: 10.1 μm
